Calls of active or inactive are those of the source.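 The calls were made as follows: active = growth-inhibition EC50 no more than tenfold above the top tested dose; inconclusive = flat fit between 30% and 70% inhibition, or unreliable fit; inactive = EC50 more than tenfold above the top tested dose.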

In the test the test system is E. coli NEB5alpha growth, BacTiter-Glo luminescence, 4 h. Nature of the test: Escherichia coli growth inhibition, dose response, counter-screen for MEX-5/POS-1 RNA-binding inhibitor project, luminescence, NEB5alpha (AID 1959;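 also: pUC19-transformed ampicillin-resistant cells grown in LB with ampicillin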). (In general: The purpose of a counterscreen is to sort out artefacts and off-target activity.)
For the compound `CSc1nnc(N2C(=O)C(O)=C(C(=O)c3ccco3)C2c2ccc(F)cc2)s1` (centres undefined), the EC50 was > 11 µM (inactive). For the compound `CN1CCc2cc3c(c4c2C1Cc1ccccc1-4)OCO3` (centres undefined), the EC50 is > 11 µM (inactive). With `COc1ccccc1-c1cnn2c(NCc3ccccc3)cc(C)nc12` the figure was > 11 µM (inactive); with `CCCn1nc(C(=O)Nc2ccc3nc(C)sc3c2)c2ccccc2c1=O`, > 11 µM (inactive); with `CCn1nc(C)c(/C=C2\CCCC3=C2OC(N)=C(C#N)C3c2c(C)nn(CC)c2C)c1C` (centres undefined), > 11 µM (inactive). Consider `COC(=O)C1=C(C)N(c2ccc(Cl)cc2)/C(=C/c2cccs2)C1=O`, for which the EC50 was > 11 µM (inactive). Next, `COc1ccc(N2C(=O)NC(=O)/C(=C\c3cn(C)c4ccccc34)C2=O)cc1`: > 11 µM (inactive). In the case of `O=C1c2ccccc2C(=O)C1c1ccc2ccccc2n1`, the EC50 was > 11 µM (inactive). With `CCCCn1c(=O)[nH]c(=O)c2c1nc(-c1ccc(-c3ccccc3Br)o1)n2CCOC` the figure was > 11 µM (inactive); with `COc1cccc(C(=O)NNc2nc(C)cc(C)n2)c1`, > 11 µM (inactive). As to `O=C1CCC/C(=N/NC(=O)c2sc3ccccc3c2Cl)C1`, the EC50 was > 11 µM (inactive).

Consider `Cc1nn(-c2ccccc2)c(N2CCCC2)c1/C=N/NC(=O)c1cc(-c2cccnc2)nc2ccccc12`, for which the EC50 is > 11 µM (inactive). With `COc1ccc(S(=O)(=O)NNC(=O)C(=O)NNc2ccccn2)cc1`, the EC50 is > 11 µM (inactive).

For `CC1(C)CC(=O)C2=C(C1)OC(N)=C(C#N)C2c1ccccc1` (centres undefined), the EC50 is > 11 µM (inactive).

For the compound `CCCCn1c(O)c(/C=N/NC(=O)c2ccncc2)c(=O)[nH]c1=O`, the EC50 is > 11 µM (inactive). Turning to `COCCn1c(N)c(NCc2ccccc2)c(=O)[nH]c1=O`, the EC50 is > 11 µM (inactive).

Take `O=C(O)c1[nH]c2ccccc2c1C(c1cc(Cl)cc([N+](=O)[O-])c1O)c1c(C(=O)O)[nH]c2ccccc12`: the EC50 is > 11 µM (inactive). Next, `COC(=O)/C=C1\C(=O)N(c2nc3ccccc3s2)C(=S)N1c1ccc(F)cc1`: > 11 µM (inactive); `Oc1ccc(C2=CSC3=NCCN23)cc1O`: > 11 µM (inactive). On to `CC1(OC(=O)C2CCCC2)C(=O)C=C2C=C(C3CC3)OC=C2C1=O` (centres undefined), for which the EC50 was > 11 µM (inactive). For `c1ccc(-c2nc(-c3ccccn3)nc(-c3ccccn3)n2)nc1`, the EC50 is > 11 µM (inactive).

For `CCOc1cccc(N2C(=O)/C(=C/c3ccco3)C(=O)NC2=S)c1`, the EC50 was > 11 µM (inactive). With `O=C1c2ccccc2C(=O)c2[nH]c(=O)[nH]c21` the figure was > 11 µM (inactive).

As to `CCOCCCn1c(=NC(C)=O)c(C#N)cc2c(=O)n3ccccc3nc21`, the EC50 was > 11 µM (inactive). With `O=C1c2cc(F)ccc2-n2c1nc1ccccc1c2=O` the figure was > 11 µM (inactive); with `CCOc1cc(C2C(C#N)=C(N)OC3=C2C(=O)CC(C)(C)C3)cc([N+](=O)[O-])c1O` (centres undefined), > 11 µM (inactive). Take `N#CC(C#N)=Cc1ccc(NC(=O)c2ccc(Br)cc2)cc1`: the EC50 is > 11 µM (inactive). Next, `CCCNC(=O)c1ccc2c(=O)c(O)c(-c3cccc(Br)c3)[nH]c2c1`: > 11 µM (inactive). As to `COc1ccc(N=Cc2cc3c(cc2O)OC(N)=C(C#N)C3c2ccccc2)cc1` (centres undefined), the EC50 was > 11 µM (inactive).

In the case of `NC1=NC(=O)/C(=C/c2ccc(-c3ccc(S(N)(=O)=O)cc3)o2)S1`, the EC50 is > 11 µM (inactive). With `O/C=c1\ccc2cccc3nc(C(F)(F)F)nc1c23` the figure was > 11 µM (inactive).

In the case of `COc1ccc(/C=C/C(=O)c2c(O)n(CCC3=CCCCC3)c(=O)[nH]c2=O)cc1OC`, the EC50 was > 11 µM (inactive).

As for `O=C(NCc1cccs1)C1CCN(S(=O)(=O)c2ccc(Br)s2)CC1`, the EC50 is > 11 µM (inactive). With `CCOC(=O)c1c(/N=C/C2C(=O)NC(=S)NC2=O)sc(C)c1C` the figure was > 11 µM (inactive). With `CC(C)CNC(=O)C1Nc2ccc(OC(F)(F)F)cc2C2C=CCC12` (centres undefined) the figure was > 11 µM (inactive); with `Fc1ccc(-c2nc3c(Cl)cc(C(F)(F)F)cn3c2Cl)cc1`, > 11 µM (inactive); with `COc1ccc(N2C(=O)/C(=C/c3ccc(C)o3)C(=O)NC2=S)c(OC)c1`, > 11 µM (inactive). For `Cc1cc(=O)n2[nH]c(N)c(N=Nc3ccccc3)c2n1`, the EC50 is > 11 µM (inactive).

`Cc1cccc(NC(=O)CN2C(=O)N/C(=C\c3cccn3-c3cccc(C(=O)O)c3)C2=O)c1`: the EC50 was > 11 µM (inactive). Next, `Cc1ccc(S(=O)(=O)c2cc3c(=O)n4ccccc4nc3n(CCc3ccccc3)c2=N)cc1`: > 11 µM (inactive); `O=C(NNc1ccccc1)C(=O)NNS(=O)(=O)c1ccc([N+](=O)[O-])cc1`: > 11 µM (inactive). Next, `CCOc1cc(/C=C(\C#N)c2nc3ccccc3[nH]2)ccc1OC(C)C(=O)O` (centres undefined): > 11 µM (inactive).

As to `Cc1cc(C)cc(N2C(=O)/C(=C\c3ccc(N4CCN(C)CC4)o3)C(=O)NC2=S)c1`, the EC50 is > 11 µM (inactive). For `CC(=O)C1=C(c2cccc([N+](=O)[O-])c2)N(C(C)=O)n2c(C)nnc2S1`, the EC50 was > 11 µM (inactive).

Consider `Nc1cccc2c1C(=O)N(Cc1nnc(-c3ccccc3Br)o1)C2=O`, for which the EC50 is > 11 µM (inactive).

As to `COc1cc(OC)c(C2C(C#N)=C(N)OC3=C2C(=O)CC(C)(C)C3)cc1OC` (centres undefined), the EC50 was > 11 µM (inactive).

`C=CCn1ccc(=NC=C(C#N)C#N)c2ccccc21`: the EC50 was > 11 µM (inactive). As to `Cn1cc(/C=N/n2cnc3scc(-c4ccc(Cl)cc4)c3c2=O)c2ccccc21`, the EC50 was > 11 µM (inactive). For the compound `CC1CCN(C(=O)CCN2C(=O)/C(=C/c3cccs3)SC2=S)CC1`, the EC50 was > 11 µM (inactive). Regarding `Cc1cc(C)c2c(=O)[nH]c(=O)n(Cc3ccccc3)c2n1`, the EC50 is > 11 µM (inactive).

Consider `CC1C(=O)NN=C1C(=O)N/N=C/c1ccco1` (centres undefined), for which the EC50 was > 11 µM (inactive). Turning to `O=C(/C=C/c1ccc(O)c(O)c1)OC(Cc1ccc(O)c(O)c1)C(=O)O` (centres undefined), the EC50 was > 11 µM (inactive). With `COc1cc(C2C(C#N)=C(N)OC3=C2C(=O)CCC3)cc2c1OCO2` (centres undefined) the figure was > 11 µM (inactive); with `Oc1c(Br)cc(Br)c(/C=N/n2c(-c3ccccc3)n[nH]c2=S)c1Br`, > 11 µM (inactive); with `COC(=O)c1ccc(-n2c(C)cc(C(=O)CCl)c2C)cc1`, > 11 µM (inactive). On to `Cc1[nH][nH]c(=O)c1N=Nc1ccc(S(N)(=O)=O)cc1`, for which the EC50 is > 11 µM (inactive).

With `C[C@@H]1O[C@@H](OC2C(O)C(OCCc3ccc(O)c(O)c3)OC(CO)C2OC(=O)/C=C/c2ccc(O)c(O)c2)[C@H](O)[C@H](O)[C@H]1O` (some centres undefined), the EC50 was > 11 µM (inactive). Next, `Cc1cccn2c(=O)c3cc(S(=O)(=O)c4ccccc4)c(=N)n(CC4CCCO4)c3nc12` (centres undefined): > 11 µM (inactive); `COc1ccc(OC)c(S(=O)(=O)Nc2ccc(O)c(Sc3ncn[nH]3)c2)c1`: > 11 µM (inactive); `COc1ccc(OC)c(/C=c2\sc3nc(-c4cccs4)nn3c2=O)c1`: > 11 µM (inactive). With `CCOC(=O)c1c(NC(=O)Nc2ccc(F)cc2)sc2c1CCN(C)C2` the figure was > 11 µM (inactive); with `Cc1c(N=Cc2c(O)n(C)c(=O)c3ccccc23)c(=O)n(-c2ccccc2)n1C`, > 11 µM (inactive); with `COc1ccc(-c2nc(CS(=O)CC(=O)NCc3ccccn3)c(C)o2)cc1` (centres undefined), > 11 µM (inactive).

In the case of `CCC(NC(C)C)C(O)c1ccc(O)c(O)c1` (centres undefined), the EC50 is > 11 µM (inactive).

As to `N#C/C(=C(/O)c1cc2ccccc2o1)c1nc2ccccc2s1`, the EC50 was > 11 µM (inactive). Next, `Nc1c(C(=O)c2ccc(Cl)cc2)sc2nsc(SCCN3CCOCC3)c12`: > 11 µM (inactive); `O=c1oc2ccc(Cl)cc2nc1/C=C(\O)c1ccco1`: > 11 µM (inactive); `CN=C1S/C(=C\c2cn(CC(=O)OC)c3ccccc23)C(=O)N1C`: > 11 µM (inactive). With `COc1[nH]c(/N=C/c2ccccc2)c(C#N)c1C#N` the figure was > 11 µM (inactive); with `Cc1ccccc1NC(=O)CN1C(=O)S/C(=C\c2ccc(-c3cc(C(=O)O)ccc3C)o2)C1=O`, > 11 µM (inactive); with `Cc1cc2c3c(c1C)C1(C(=O)N3C(C)(C)CC2C)C(C#N)=C(N)OC2=C1C(=O)CC(C)(C)C2` (centres undefined), > 11 µM (inactive). For `CCN(CC)CCN(Cc1cc2ccc(C)c(C)c2[nH]c1=O)C(=S)NCc1ccco1`, the EC50 is > 11 µM (inactive).

For `Cc1ccc(S(=O)(=O)Nc2ccccc2F)cc1C(=O)NNC(=O)c1csc(N2CCOCC2)n1`, the EC50 is > 11 µM (inactive).

As to `COc1ccc2c3c([nH]c2c1)C1CC2C(CC(O)C(OC)C2C(=O)O)CN1CC3` (centres undefined), the EC50 was > 11 µM (inactive).

On to `COC/C=C/C1=CC2=CC(=O)C(C)(OC(=O)CCC(=O)OC)C(=O)C2=CO1` (centres undefined), for which the EC50 was > 11 µM (inactive). For the compound `O=C(N/N=C/c1c(O)n(CCc2ccccc2)c(=O)[nH]c1=O)c1ccccc1O`, the EC50 was > 11 µM (inactive). Take `Cc1cc(/C=C(/C#N)c2nc3ccccc3[nH]2)c(C)n1-c1ccccc1C(=O)O`: the EC50 was > 11 µM (inactive). For `COc1cc(/C=C2\C(=O)NN(c3ccccc3)C2=O)cc([N+](=O)[O-])c1O`, the EC50 was > 11 µM (inactive).

In the case of `COc1ccc(CNC(=O)c2cnc3cc(C)ccn3c2=O)cc1`, the EC50 was > 11 µM (inactive). Next, `Cc1nc(-c2ccc(O)c(O)c2)cs1`: > 11 µM (inactive); `C/C(=N\Nc1ccc(Cl)c(C(=O)O)c1)c1ccc[nH]1`: > 11 µM (inactive). With `Cc1cc(-c2ccccc2)nc(N/N=C/c2ccc(O)cc2O)n1` the figure was > 11 µM (inactive); with `CSc1nsc2nc(=O)c(/C=C3\C=Nc4ccccc43)c(N)n12`, > 11 µM (inactive).

Turning to `CCCOc1ccc(/C=c2\sc3nc(-c4ccco4)nn3c2=O)cc1OCC`, the EC50 was > 11 µM (inactive).

One may read the EC50 as the concentration that produces a half-maximal response.

The values above are taken from PubChem BioAssay AID1959 (Broad Institute, 2009).
